Laboratory results as given in US9828364B2, “Pyrazole compounds as BTK inhibitors” (Boehringer Ingelheim International GmbH, priority 2014, dated 2017).

Experiments:
[1] = target: T1, full-length human His-tagged BTK (Homo sapiens, UniProt Q06187); experiment: BTK HTRF assay (Cisbio KinEASE-TK); assay type: biochemical; conditions: 6 nM BTK, 30 uM ATP, 15 min preincubation
T1 construct: 6 nM of full-length human His-tagged BTK (Life Technologies cat # PV3587); His; purchased Life Technologies PV3587
Protocol: Description of Biological Properties BTK Assay
An HTRF assay (Cisbio KinEASE-TK cat #62TK0PEC) was performed to quantitate the ability of test compounds to inhibit BTK mediated phosphorylation of substrate. Assays were assembled in 384 well plates where 6 nM of full-length human His-tagged BTK (Life Technologies cat # PV3587) and test compound at varying concentrations were preincubated for 15 minutes at 28° C. Then, 1 uM of TK substrate-biotin and 30 uM ATP were added and incubated for an additional 30 minutes at 28° C. Phospohrylation was detected by adding 62.5 nM Streptavidin-XL665 and TK-Antibody Cryptate diluted 1:100 in HTRF detection buffer (Cisbio cat #62SDBRDF) and incubated for 60 minutes at RT. The plate was read on an Envision plate reader and the fluorescence is measured at 620 nm (cryptate) and 665 nm (XL665). A ratio is calculated (665/620) and converted to POC relative to control and blank wells.
50 mM HEPES (Invitrogen #15630), 0.01% Brij-35 (sigma #B4184), 10 mM MgCl2 (Sigma M1028), 1 mM EGTA (Ambion AM9262) and 100 uM sodium orthovanedate (Sigma S6508), 1 mM DTT (Sigma D5545) and 10 nM supplement enzyme buffer (Cisbio cat#61SEBALB).

[2] = system: BTK activity measured by IL-6 production in primary CD19+ cells; experiment: Inhibition of IL-6 production in B cells co-stimulated with ODN 2006 and anti-hIgD; assay type: cell-based; conditions: B-cell, anti-human IgD + ODN 2006, 18-24 hours
Protocol: (§1) The compounds described herein show a range of selectivities against EGFR as measured in cellular assays (BTK activity measured by IL-6 production in primary CD19^+ cells; EGFR activity measured by EGFR phosphorylation in A431 cells).
Inhibition of IL-6 Production in B Cells Co-Stimulated with ODN 2006 and Anti-hIgD
Primary CD19+ B cells (AllCells # PB010F) are thawed and plated in RPMI containing 10% HI FBS in a 384-well tissue cultured plate at 20,000 cells/well. The cells are treated with test compound (0.5% DMSO final concentration) and incubated for 1 hour at 37° C., 5% CO2. Cells are then stimulated with 5 ug/mL Goat F(ab′)2 anti-human IgD (SouthernBiotech #2032) and 2 uM ODN 2006 (InvivoGen # tlrl-2006) and incubated for 18-24 hours at 37° C., 5% CO2. IL-6 in the supernatant is measured using Meso Scale Discovery kit # K211AKB-6.

[3] = system: EGFR phosphorylation in A431 cells; experiment: Inhibition of EGFR autophosphorylation in A431 human epithelial cells stimulated with EGF; assay type: cell-based; conditions: A-431, 16 hours compound, EGF 60 ng/mL 10 minutes, read-out: A431 p-EGFR IC50
Excerpt: as §1
Inhibition of EGFR Autophosphorylation in A431 Human Epithelial Cells Stimulated with Epithelial Growth Factor
A431 cells (ATCC # CRL-1555 FZ) are thawed and plated in DMEM containing 10% FBS in a 384-well tissue culture treated plate at 15,000 cells/well. After incubating for 24 hours at 37° C., 5% CO2, the cells are treated with test compound (1% DMSO final concentration) and incubated for 16 hours at 37° C., 5% CO2. EGF (Millipore, 01-107) is added at a final concentration of 60 ng/mL and incubated for 10 minutes. The medium is removed, the cells are lysed, and phospho EGFR is measured (Meso Scale Diagnostics, N31CB-1).

T1 sequence (Q06187 whole entry): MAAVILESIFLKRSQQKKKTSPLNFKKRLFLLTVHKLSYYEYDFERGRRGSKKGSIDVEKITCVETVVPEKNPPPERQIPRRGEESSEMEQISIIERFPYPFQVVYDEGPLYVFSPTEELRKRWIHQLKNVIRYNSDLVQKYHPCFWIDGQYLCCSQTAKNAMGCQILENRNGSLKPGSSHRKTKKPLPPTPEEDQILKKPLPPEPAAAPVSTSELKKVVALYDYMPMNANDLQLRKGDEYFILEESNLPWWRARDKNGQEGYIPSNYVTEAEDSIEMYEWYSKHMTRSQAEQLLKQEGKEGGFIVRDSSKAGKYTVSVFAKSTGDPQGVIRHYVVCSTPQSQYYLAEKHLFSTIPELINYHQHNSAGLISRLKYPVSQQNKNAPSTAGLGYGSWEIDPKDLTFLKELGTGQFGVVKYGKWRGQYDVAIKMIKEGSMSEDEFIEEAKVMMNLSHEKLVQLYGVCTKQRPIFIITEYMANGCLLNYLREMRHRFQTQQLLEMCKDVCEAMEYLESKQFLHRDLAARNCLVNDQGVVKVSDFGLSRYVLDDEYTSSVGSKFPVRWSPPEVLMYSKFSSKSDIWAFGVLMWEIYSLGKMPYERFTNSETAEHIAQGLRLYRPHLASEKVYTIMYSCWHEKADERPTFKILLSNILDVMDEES

IC50 [1] [nM]	IC50 [2] [nM]	IC50 [3] [nM]	Compound
240	–	–	C=CC(=O)N1CC2(CC(n3nc(-c4ccc(C5(CO)CC5)cc4)c(C(N)=O)c3N)C2)C1 [Example 24]
460	–	–	C=CC(=O)N1CCC[C@]2(C1)C[C@@H](n1nc(-c3ccc(COC)cc3)c(C(N)=O)c1N)C2 [Example 6]
2.5	–	–	CC#CC(=O)N1CC[C@]2(C1)C[C@H](n1nc(-c3ccc(CO)cc3)c(C(N)=O)c1N)C2 [Example 21]
9.3	–	–	CC#CC(=O)N1CC[C@]2(C1)C[C@H](n1nc(-c3ccc(C(C)OC)cc3)c(C(N)=O)c1N)C2 (stereo partly shown) [Example 10]
2.2	–	–	CC#CC(=O)N1CC[C@]2(C1)C[C@H](n1nc(-c3ccc(COCC)cc3)c(C(N)=O)c1N)C2 [Example 11]
1.8	–	–	CCC#CC(=O)N1CC[C@]2(C1)C[C@H](n1nc(-c3ccc(C(C)OCC)cc3)c(C(N)=O)c1N)C2 (stereo partly shown) [Example 16]
94	–	–	C=CC(=O)N1CC2(CC(n3nc(-c4ccc(COC)cc4)c(C(N)=O)c3N)C2)C1 [Example 3]
150	–	–	C=CC(=O)N1CC[C@]2(C1)C[C@H](n1nc(-c3ccc(C(O)C(C)C)cc3)c(C(N)=O)c1N)C2 (stereo partly shown) [Example 18]
450	–	–	C=CC(=O)N1CCC[C@]2(C1)C[C@H](n1nc(-c3ccc(COC)cc3)c(C(N)=O)c1N)C2 [Example 7]
1.2	–	–	CCOC(C)c1ccc(-c2nn([C@H]3C[C@@]4(CCN(C(=O)C#CC5CC5)C4)C3)c(N)c2C(N)=O)cc1 (stereo partly shown) [Example 17]
2	2.4	6100	CC#CC(=O)N1CC[C@]2(C1)C[C@H](n1nc(-c3ccc(COC)cc3)c(C(N)=O)c1N)C2 [Example 5]
100	–	–	C=CC(=O)N1CC2(CC(n3nc(-c4ccc(C(C)OCC)cc4)c(C(N)=O)c3N)C2)C1 (stereo not shown) [Example 1]
1.4	7	> 10000	CC#CC(=O)N1CC[C@]2(C1)C[C@H](n1nc(-c3ccc(CCO)cc3)c(C(N)=O)c1N)C2 [Example 25]
4.5	5.1	3000	CC#CC(=O)N1CC[C@]2(C1)C[C@H](n1nc(-c3ccc(C(O)C(C)C)cc3)c(C(N)=O)c1N)C2 (stereo partly shown) [Example 19]
3.6	–	–	CC#CC(=O)N1CC[C@]2(C1)C[C@H](n1nc(-c3ccc(C(C)OCC)cc3)c(C(N)=O)c1N)C2 (stereo partly shown) [Example 15]
0.6	–	–	COCc1ccc(-c2nn([C@H]3C[C@@]4(CCN(C(=O)C#CC5CCC5)C4)C3)c(N)c2C(N)=O)cc1 [Example 14]
2.4	–	–	CC#CC(=O)N1CC[C@]2(C1)C[C@H](n1nc(-c3ccc(C4(CO)CC4)cc3)c(C(N)=O)c1N)C2 [Example 26]
66	–	–	C=CC(=O)N1CC[C@]2(C1)C[C@H](n1nc(-c3ccc(CO)cc3)c(C(N)=O)c1N)C2 [Example 20]
0.9	–	–	CCC#CC(=O)N1CC[C@]2(C1)C[C@H](n1nc(-c3ccc(COC)cc3)c(C(N)=O)c1N)C2 [Example 12]
68	–	–	C=CC(=O)N1CCC[C@]2(C1)C[C@@H](n1nc(-c3ccc(C(O)C4CC4)cc3)c(C(N)=O)c1N)C2 (stereo partly shown) [Example 23]
0.7	–	–	COCc1ccc(-c2nn([C@H]3C[C@@]4(CCN(C(=O)C#CC5CC5)C4)C3)c(N)c2C(N)=O)cc1 [Example 13]
12	93	> 10000	CC#CC(=O)N1CC[C@]2(C1)C[C@H](n1nc(-c3ccc(S(C)(=O)=O)cc3)c(C(N)=O)c1N)C2 [Example 27]
26	–	–	C=CC(=O)N1CC[C@]2(C1)C[C@H](n1nc(-c3ccc(COC)cc3)c(C(N)=O)c1N)C2 [Example 4]
200	–	–	C=CC(=O)N1CC2(CC(n3nc(-c4ccc(C(C)OC)cc4)c(C(N)=O)c3N)C2)C1 (stereo not shown) [Example 2]
8.2	6.3	> 10000	CC#CC(=O)N1CCC[C@]2(C1)C[C@H](n1nc(-c3ccc(COC)cc3)c(C(N)=O)c1N)C2 [Example 9]
160	–	–	CC#CC(=O)N1CCC[C@]2(C1)C[C@@H](n1nc(-c3ccc(COC)cc3)c(C(N)=O)c1N)C2 [Example 8]
59	–	–	CC#CC(=O)N1CCC[C@]2(C1)C[C@H](n1nc(-c3ccc(C(O)C4CC4)cc3)c(C(N)=O)c1N)C2 (stereo partly shown) [Example 22]
